According to article PMC13128454, “Mutant p53 protein accumulation is selectively targetable by proximity-inducing drugs” (Nature Chemical Biology, 2025):
Like-named read-outs stand apart in the source and are kept apart here.

How the values were obtained:
Format in all cases: cell-based
[1] = system: Halo–p53-Y220C ΔTAD–mCherry 293T cells; assay: 3-week culture with compound, mCherry^− fraction by FACS; conditions: 250 nM, 3 weeks
[2] = system: BxPC-3 cells; assay: CellTiter-Glo cell viability; conditions: BXPC3; for mean_norm (normalized viability): 4 day
Summary of the method: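 First, typically 1,500 cells are plated per well alongside graded compound doses. Next, CTG reagent goes in and is mixed. Finally, the plate is read.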

[3] = system: HepG2 cells; assay: CellTiter-Glo cell viability
Description: (§1) Cells were plated in 384-well plates (typically 1,500 cells per well) with varying concentrations of compounds, with a total volume of 50 μl per well. CTG reagent was added (25 μl) to the solutions, mixed and read out using an EnVision 2105 multimode plate reader.

[4] = system: MCF7 cells; assay: CellTiter-Glo cell viability
Description: as §1

[5] = system: LNCaP cells; assay: CellTiter-Glo cell viability; conditions: for mean_norm (normalized viability): LNCAP, 4 day
Description: as §1

[6] = CellTiter-Glo cell viability; conditions: human, read-out: mean_norm (normalized viability)
Description: as §1

[7] = system: MFE296 cells; assay: CellTiter-Glo cell viability
Description: as §1

[8] = system: NUGC-3 cells; assay: CellTiter-Glo cell viability; conditions: NUGC3
Description: as §1

[9] = system: DU145 cells; assay: CellTiter-Glo cell viability
Description: as §1

[10] = system: Huh7 cells; assay: CellTiter-Glo cell viability
Description: as §1

[11] = Homo sapiens, 96 h, 4 day treatment

- IC50 ([2]; Homo sapiens, BXPC-3, 96 h, 4 day treatment): 8.25 µM
- IC50 [3, 11]: > 20 µM
- IC50 [4, 11]: 2.81 µM
- IC50 ([5]; Homo sapiens, 96 h, LNCaP, 4 day treatment): 14.1 µM
- IC50 ([9]; Homo sapiens, DU-145, 96 h, 4 day treatment): > 20 µM
- IC50 ([10]; Homo sapiens, Huh-7, 96 h, 4 day treatment): > 20 µM
Structure (SMILES): CC[C@@H]1C(=O)N(C)c2cnc(Nc3ccc(C(=O)NCCOCCOCCOCCOCCC(=O)N4CCC(Nc5cccc6c5cc(C#CCNc5ccc(S(C)(=O)=O)cc5OC)n6CC(F)(F)F)CC4)cc3OC)nc2N1C1CCCC1 [p53-01, PMV6-PEG4-BI2536]
- expansion of mCherry^− fraction [1]: 6.9 fold
- p5301_AUC_to_10uM [2]: 0.6983
- mean_norm (normalized viability) ([2]; Concentration 625): 0.9363
- mean_norm (normalized viability) ([2]; Concentration 1250): 0.9354
- mean_norm (normalized viability) ([2]; Concentration 2500): 0.8133
- mean_norm (normalized viability) ([2]; Concentration 5000): 0.7027
- p5301_AUC_to_10uM [3]: 0.9503
- mean_norm (normalized viability) ([3]; Concentration 39.0625, 4 day): 0.9684
- mean_norm (normalized viability) ([3]; Concentration 78.125, 4 day): 0.9673
- mean_norm (normalized viability) ([3]; Concentration 156.25, 4 day): 0.8732
- mean_norm (normalized viability) ([3]; Concentration 312.5, 4 day): 0.9657
- mean_norm (normalized viability) ([3]; Concentration 625, 4 day): 0.8895
- mean_norm (normalized viability) ([3]; Concentration 1250, 4 day): 0.9491
- mean_norm (normalized viability) ([3]; Concentration 2500, 4 day): 0.8943
- mean_norm (normalized viability) ([3]; Concentration 5000, 4 day): 1.008
- mean_norm (normalized viability) ([3]; Concentration 10000, 4 day): 0.9189
- mean_norm (normalized viability) ([3]; Concentration 20000, 4 day): 0.9567
- p5301_AUC_to_10uM [4]: 0.5585
- mean_norm (normalized viability) ([4]; Concentration 39.0625, 4 day): 1.014
- mean_norm (normalized viability) ([4]; Concentration 78.125, 4 day): 0.9684
- mean_norm (normalized viability) ([4]; Concentration 156.25, 4 day): 0.9955
- mean_norm (normalized viability) ([4]; Concentration 312.5, 4 day): 1.001
- mean_norm (normalized viability) ([4]; Concentration 625, 4 day): 0.97
- mean_norm (normalized viability) ([5]; Concentration 5000): 0.7565
- mean_norm (normalized viability) ([5]; Concentration 10000): 0.7384
- mean_norm (normalized viability) ([5]; Concentration 20000): 0.4932
- p5301_AUC_to_10uM ([5]; LNCaP): 0.8069
- viability at 4 day ([6]; DU145 cells, Concentration 39.0625, 4 day): 104%
- viability at 4 day ([6]; DU145 cells, Concentration 78.125, 4 day): 101%
- viability at 4 day ([6]; DU145 cells, Concentration 156.25, 4 day): 97.4%
- viability at 4 day ([6]; DU145 cells, Concentration 312.5, 4 day): 96.2%
- viability at 4 day ([6]; DU145 cells, Concentration 625, 4 day): 97.2%
- viability at 4 day ([6]; DU145 cells, Concentration 1250, 4 day): 98.7%
- viability at 4 day ([6]; DU145 cells, Concentration 2500, 4 day): 98.2%
- viability at 4 day ([6]; DU145 cells, Concentration 5000, 4 day): 91.3%
- viability at 4 day ([6]; DU145 cells, Concentration 10000, 4 day): 79.5%
- viability at 4 day ([6]; DU145 cells, Concentration 20000, 4 day): 76.4%
- viability at 4 day ([6]; Huh7 cells, Concentration 39.0625, 4 day): 110%
- viability at 4 day ([6]; Huh7 cells, Concentration 78.125, 4 day): 104%
- viability at 4 day ([6]; Huh7 cells, Concentration 156.25, 4 day): 109%
- viability at 4 day ([6]; Huh7 cells, Concentration 312.5, 4 day): 104%
- viability at 4 day ([6]; Huh7 cells, Concentration 625, 4 day): 108%
- viability at 4 day ([6]; Huh7 cells, Concentration 1250, 4 day): 104%
- viability at 4 day ([6]; Huh7 cells, Concentration 2500, 4 day): 107%
- viability at 4 day ([6]; Huh7 cells, Concentration 5000, 4 day): 100%
- viability at 4 day ([6]; Huh7 cells, Concentration 10000, 4 day): 102%
- viability at 4 day ([6]; Huh7 cells, Concentration 20000, 4 day): 83.1%
- viability at 4 day ([6]; LNCaP cells, LNCAP, Concentration 39.0625, 4 day): 96.3%
- viability at 4 day ([6]; LNCaP cells, LNCAP, Concentration 78.125, 4 day): 93%
- viability at 4 day ([6]; LNCaP cells, LNCAP, Concentration 156.25, 4 day): 94.9%
- viability at 4 day ([6]; LNCaP cells, LNCAP, Concentration 312.5, 4 day): 97.9%
- viability at 4 day ([6]; LNCaP cells, LNCAP, Concentration 625, 4 day): 108%
- viability at 4 day ([6]; LNCaP cells, LNCAP, Concentration 1250, 4 day): 102%
- viability at 4 day ([6]; LNCaP cells, LNCAP, Concentration 2500, 4 day): 87.3%
- viability at 4 day ([6]; MCF7 cells, Concentration 1250, 4 day): 88.6%
- viability at 4 day ([6]; MCF7 cells, Concentration 2500, 4 day): 64.8%
- viability at 4 day ([6]; MCF7 cells, Concentration 5000, 4 day): 49.8%
- viability at 4 day ([6]; MCF7 cells, Concentration 10000, 4 day): 36.9%
- viability at 4 day ([6]; MCF7 cells, Concentration 20000, 4 day): 29.2%
- viability at 4 day ([6]; NUGC-3 cells, NUGC3, Concentration 39.0625, 4 day): 101%
- viability at 4 day ([6]; NUGC-3 cells, NUGC3, Concentration 78.125, 4 day): 98%
- viability at 4 day ([6]; NUGC-3 cells, NUGC3, Concentration 156.25, 4 day): 103%
- viability at 4 day ([6]; NUGC-3 cells, NUGC3, Concentration 312.5, 4 day): 98.2%
- viability at 4 day ([6]; NUGC-3 cells, NUGC3, Concentration 625, 4 day): 91.1%
- viability at 4 day ([6]; NUGC-3 cells, NUGC3, Concentration 1250, 4 day): 79.9%
- viability at 4 day ([6]; NUGC-3 cells, NUGC3, Concentration 2500, 4 day): 53.4%
- viability at 4 day ([6]; NUGC-3 cells, NUGC3, Concentration 5000, 4 day): 42.5%
- viability at 4 day ([6]; NUGC-3 cells, NUGC3, Concentration 10000, 4 day): 39.3%
- viability at 4 day ([6]; NUGC-3 cells, NUGC3, Concentration 20000, 4 day): 32.6%
- p5301_AUC_to_10uM [7]: 0.5186
- mean_norm (normalized viability) ([7]; Concentration 39.0625, 4 day): 1.0133
- mean_norm (normalized viability) ([7]; Concentration 78.125, 4 day): 1.079
- mean_norm (normalized viability) ([7]; Concentration 156.25, 4 day): 1.012
- mean_norm (normalized viability) ([7]; Concentration 312.5, 4 day): 1.043
- mean_norm (normalized viability) ([7]; Concentration 625, 4 day): 0.9978
- mean_norm (normalized viability) ([7]; Concentration 1250, 4 day): 0.7559
- mean_norm (normalized viability) ([7]; Concentration 2500, 4 day): 0.6581
- mean_norm (normalized viability) ([7]; Concentration 5000, 4 day): 0.4955
- mean_norm (normalized viability) ([7]; Concentration 10000, 4 day): 0.246
- IC50 ([7]; Homo sapiens, MFE-296, 96 h, 4 day treatment): 4.32 µM
- IC50 ([8]; Homo sapiens, NUGC-3, 96 h, 4 day treatment): 1.71 µM
- p5301_AUC_to_10uM [8]: 0.5108
- p5301_AUC_to_10uM [9]: 0.9088
- p5301_AUC_to_10uM [10]: 1
